Reference: patent EP4680608B1, “2,6-DIHYDRO-7H-PYRAZOLO[3,4-C]PYRIDIN-7-ONE DERIVATIVES AS ANTI-MALARIAL AGENTS” (MMV Medicines for Malaria Venture, priority 2024, dated 2025)
Where two headings read alike, the source gives them in different places.

Key:
[1] = biological target: T1, P. falciparum DHODH (Plasmodium falciparum, UniProt Q08210); assay: DHODH inhibition, steady-state DCIP assay (PfDHODH); type: biochemical; conditions: recombinant PfDHODH, DCIP method, 25°C, 5 nM enzyme
T1 construct: His6 (N); made in house; host or cells: E. coli BL21-DE3 (phage-resistant)
T1 sequence (Q08210 158-569): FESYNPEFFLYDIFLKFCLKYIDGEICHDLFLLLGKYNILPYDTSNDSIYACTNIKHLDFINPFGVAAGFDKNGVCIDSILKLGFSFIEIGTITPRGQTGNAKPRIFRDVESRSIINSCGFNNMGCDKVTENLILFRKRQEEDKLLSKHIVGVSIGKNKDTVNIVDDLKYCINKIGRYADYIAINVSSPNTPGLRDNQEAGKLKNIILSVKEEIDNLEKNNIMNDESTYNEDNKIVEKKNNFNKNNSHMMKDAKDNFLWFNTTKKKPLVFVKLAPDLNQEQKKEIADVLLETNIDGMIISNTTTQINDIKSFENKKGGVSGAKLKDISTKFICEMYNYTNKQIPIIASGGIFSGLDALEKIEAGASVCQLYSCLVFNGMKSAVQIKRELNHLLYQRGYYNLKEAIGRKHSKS
Experimental: (§1) Compound stocks were prepared at 10-100 mM in DMSO, and diluted working stocks in DMSO were generated as appropriate. Compounds were plated from DMSO stocks in 96 well plate format using a Tecan D300e digital dispenser to generate a 3-fold dilution series over a concentration range of 0.0003 -100 µM (or 30 µM), yielding a final DMSO concentration of 1% in the assay. The top concentration used in the dose response was determined by the initial DMSO stock concentrations:100 µM for 100 mM stocks, and 30 µM for 10 mM stocks. Triplicate rate data were collected at each inhibitor concentration. Inhibitory IC50 values were determined by fitting the data to log (inhibitor) vs response equation Y = bottom + (top - bottom)/(1 + 10A ((X - Log IC50))) in GraphPad Prism.

[2] = biological target: T2, Human DHODH (Homo sapiens, UniProt Q02127); assay: DHODH inhibition, steady-state DCIP assay (human DHODH); type: biochemical; conditions: recombinant HsDHODH, DCIP method, 25°C, 5 nM enzyme; top concentration 100 µM or 30 µM
T2 construct: C-terminal His6-tagged HsDHODH residues 29-395 in pET-22b (start ^29MATGDE); His6 (C); made in house; host or cells: E. coli BL21-DE3 (phage-resistant)
T2 sequence (Q02127 29-395): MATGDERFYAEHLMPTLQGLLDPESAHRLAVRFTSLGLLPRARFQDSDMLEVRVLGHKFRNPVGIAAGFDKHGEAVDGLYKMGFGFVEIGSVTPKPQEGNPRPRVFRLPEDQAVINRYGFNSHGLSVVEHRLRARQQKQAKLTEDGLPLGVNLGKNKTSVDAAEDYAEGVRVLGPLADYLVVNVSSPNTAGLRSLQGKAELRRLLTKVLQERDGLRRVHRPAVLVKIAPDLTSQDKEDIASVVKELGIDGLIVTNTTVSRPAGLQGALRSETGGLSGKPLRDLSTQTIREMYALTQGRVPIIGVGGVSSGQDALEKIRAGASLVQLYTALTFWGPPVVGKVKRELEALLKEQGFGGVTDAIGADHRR
Source text: (§2) DOI: 10.1074/jbc.M206854200).
(§3) Proteins were expressed and purified on a Pharmacia FPLC using HisTrap HP column chromatography followed by gel filtration chromatography on a Pharmacia HiLoad 16/600 Superdex 200 column, and protein concentration determined based on OD280 using the previously described extinction coefficients (Kokkonda et al., 2020, J Med Chem, 63 (9), 4929-4956. DOI: 10.1021/acs.jmedchem.0c00311). Purified proteins were >95% pure based on SDS-PAGE analysis.
(§4) DHODH activity was monitored in a steady-state assay using the 2,6-dichloroindophenol (DCIP) method at 25°C in assay buffer (100 mM HEPES, pH 8.0, 150 mM NaCl, 1% glycerol, 0.1% Triton X-100 reduced) plus substrates 20 µM CoQD, 200 µM DHO, 120 µM DCIP, and 5 nM enzyme as previously described (Malmquist et al, 2008, Biochemistry, 47 (8), 2466-2475. DOI: 10.1021/bi702218c).
as §1, with “Prism. DSM265 ^2 was plated as an assay control in all studies.” for “Prism.”

[3] = tested on: P. falciparum 3D7; assay: Asexual blood-stage growth inhibition assay, SYBR green method; type: cell-based; conditions: ring-stage 3D7 parasites
Experimental: Asexual blood-stage EC50 assays. […] Compound stocks prepared in DMSO were plated using a Tecan D300e automated low volume liquid handler. Ring-stage 3D7 or Dd2 parasites (60 µL cells) (2% hematocrit, 0.5% parasitemia, final DMSO concentration 0.5%) were added to plates, incubated with compounds over a range of concentrations in technical triplicate for 72 h at 37 °C, 5% CO2, and then frozen (-80°C) overnight before analysis. […] Data were analyzed by non-linear regression using GraphPad Prism to determine the EC50 by fitting to the built-in equation (log(inhibitor) vs response-variable slope with four parameters).

[4] = biological target: P. vivax DHODH (Plasmodium vivax, UniProt A5K1N1); assay: DHODH inhibition, steady-state DCIP assay (PvDHODH); type: biochemical
Chain of P. vivax DHODH (A5K1N1 entry or part of it): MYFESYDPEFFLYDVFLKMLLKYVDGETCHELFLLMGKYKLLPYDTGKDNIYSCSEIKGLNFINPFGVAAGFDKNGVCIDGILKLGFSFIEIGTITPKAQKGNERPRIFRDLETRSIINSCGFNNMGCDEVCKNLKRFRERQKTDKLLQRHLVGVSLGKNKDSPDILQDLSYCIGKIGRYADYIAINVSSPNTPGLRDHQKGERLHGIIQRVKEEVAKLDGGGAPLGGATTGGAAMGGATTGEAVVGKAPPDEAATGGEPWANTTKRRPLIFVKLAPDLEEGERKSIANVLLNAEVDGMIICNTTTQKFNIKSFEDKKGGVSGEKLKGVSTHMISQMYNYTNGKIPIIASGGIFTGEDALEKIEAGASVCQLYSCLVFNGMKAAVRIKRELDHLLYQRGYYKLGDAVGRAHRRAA
Source text: as §2, §3, §4
as §1, with “Prism. DSM265 ^2 was plated as an assay control in all studies.” for “Prism.”

[5] = Plasmodium falciparum, 3D7, 72 h
[6] = recombinant PvDHODH, DCIP method, 25°C, 5 nM enzyme; read-out: P. vivax DHODH (IC50)
[7] = read-out: P. vivax DHODH (IC50); recombinant PvDHODH, DCIP method, 25°C, 5 nM enzyme

Compound	IC50 [1] [nM]	IC50 [2] [nM]	EC50 [3, 5] [nM]	IC50 [4, 6] [nM]	EC50 ([3]; 72 h) [nM]	IC50 [4, 7] [nM]
CC(C)[C@@](O)(c1cnc(C(F)(F)F)c(Cl)c1)c1c2ccn(C3CC3)c(=O)c2nn1C (single isomer, unassigned) [1-1]	46	> 30000	16	40	–	–
Cn1nc2c(=O)n(C3CC3)ccc2c1[C@](O)(c1ccc(C(F)(F)F)c(C#N)c1)C1CC1 (single isomer, unassigned) [1-3]	17	> 30000	1.3	17	–	–
CC[C@@](O)(c1ccc(C(F)(F)F)c(C#N)c1)c1c2ccn(C3CC3)c(=O)c2nn1C (single isomer, unassigned) [1-5]	17	910	0.75	21	–	–
Cn1nc2c(=O)n(C3CC3)ccc2c1[C@](C)(O)c1ccc(F)c(Cl)c1 (single isomer, unassigned) [1-9]	16	14000	0.92	6.9	–	–
CC[C@@](O)(c1ccc(F)c(Cl)c1)c1c2ccn(C3CC3)c(=O)c2nn1C (single isomer, unassigned) [1-13]	7	670	0.49	11	–	–
CC[C@@](O)(c1cnc(C(F)(F)F)c(Cl)c1)c1c2ccn(C3CC3)c(=O)c2nn1C (single isomer, unassigned) [1-14]	14	4200	0.64	18	–	–
Cn1nc2c(=O)n(C3CC3)ccc2c1[C@](O)(c1cnc(C(F)(F)F)c(Cl)c1)C1CC1 (single isomer, unassigned) [1-16]	16	> 30000	3.2	23	–	–
Cn1nc2c(=O)n(C3CC3)ccc2c1[C@](O)(c1ccc(F)c(Cl)c1)C1CC1 (single isomer, unassigned) [1-18]	12	22000	9	11	–	–
CC[C@@](O)(c1cc(F)c(Cl)c(F)c1)c1c2ccn(C3CC3)c(=O)c2nn1C (single isomer, unassigned) [1-20]	–	1400	0.5	19	–	–
CC[C@@](O)(c1ccc(C(F)(F)F)nc1)c1c2ccn(C3CC3)c(=O)c2nn1C (single isomer, unassigned) [1-22]	–	5300	2.7	48	–	–
CCn1cc(F)c2c([C@@](O)(CC)c3ccc(C(F)(F)F)nc3)n(C)nc2c1=O (single isomer, unassigned) [1-24]	24	6200	1.2	33	–	–
Cn1nc2c(=O)n(C3CC3)ccc2c1[C@](O)(c1ccc(C(F)(F)F)nc1)C1CC1 (single isomer, unassigned) [1-26]	46	> 30000	6.7	48	–	–
CCn1cc(C2CC2)c2c([C@H](O)c3cnc(C(F)(F)F)c(Cl)c3)n(C)nc2c1=O (single isomer, unassigned) [1-28]	26	> 100000	4.6	11	–	–
CCn1cc(C)c2c([C@H](O)c3ccc(Cl)c(F)c3)n(C)nc2c1=O (single isomer, unassigned) [1-30]	18	34000	7	7.9	–	–
CCn1ccc2c([C@](O)(c3cnc(C(F)(F)F)c(Cl)c3)C3CC3)n(C)nc2c1=O (single isomer, unassigned) [1-32]	–	> 100000	2.4	8	–	–
CCn1ccc2c([C@@](O)(CC)c3ccc(F)c(Cl)c3)n(C)nc2c1=O (single isomer, unassigned) [1-34]	21	3900	0.3	4.1	–	–

Compound	IC50 [1] [nM]	IC50 [2] [nM]	EC50 [3, 5] [nM]	IC50 [4, 6] [nM]	EC50 ([3]; 72 h) [nM]	IC50 [4, 7] [nM]
CCn1ccc2c([C@](C)(O)c3cnc(C(F)(F)F)c(Cl)c3)n(C)nc2c1=O (single isomer, unassigned) [1-36]	45	> 100000	1.4	9.2	–	–
CCn1ccc2c([C@](O)(c3ccc(F)c(Cl)c3)C3CC3)n(C)nc2c1=O (single isomer, unassigned) [1-38]	17	88000	1.5	4.3	–	–
CCn1ccc2c([C@](C)(O)c3ccc(F)c(Cl)c3)n(C)nc2c1=O (single isomer, unassigned) [1-40]	17	80000	0.42	5.2	–	–
CCn1ccc2c([C@@](O)(CC)c3cnc(C(F)(F)F)c(Cl)c3)n(C)nc2c1=O (single isomer, unassigned) [1-42]	13	41000	0.49	7.9	–	–
CCn1ccc2c([C@](O)(c3ccc(C(F)(F)F)nc3)C3CC3)n(C)nc2c1=O (single isomer, unassigned) [1-44]	–	> 100000	7.2	29	–	–
Cn1nc2c(=O)n(C3CC3)ncc2c1[C@](O)(c1cnc(C(F)(F)F)c(Cl)c1)C1CC1 (single isomer, unassigned) [2-10]	–	> 30000	15	21	–	–
CC[C@@](O)(c1cnc(C(F)(F)F)c(Cl)c1)c1c2cnn(C3CC3)c(=O)c2nn1C (single isomer, unassigned) [2-14]	–	> 30000	2.7	–	–	–
CC[C@@](O)(c1cnc(C(F)(F)F)c(Cl)c1)c1c2ncn(C3CC3)c(=O)c2nn1C (single isomer, unassigned) [3-5]	–	6800	0.94	17	–	–
Cn1nc2c(=O)n(C3CC3)ccc2c1[C@](N)(c1cnc(C(F)(F)F)c(Cl)c1)C1CC1 (single isomer, unassigned) [4-9]	44	21000	14	–	–	–
CC[C@@](N)(c1ccc(C(F)(F)F)c(Cl)c1)c1c2cnn(C3CC3)c(=O)c2nn1C (single isomer, unassigned) [4-18]	–	4700	3.4	6.2	–	–
Cn1nc2c(=O)n(C3CC3)ncc2c1[C@](O)(c1cnc(C(F)(F)F)c(Cl)c1)C(F)(F)F (single isomer, unassigned) [5-1]	–	> 30000	3.8	20	–	–
Cn1nc2c(=O)n(C3CC3)ccc2c1[C@](O)(c1cnc(C(F)(F)F)c(Cl)c1)C(F)(F)F (single isomer, unassigned) [5-5]	–	> 30000	0.51	–	–	–
Cn1nc2c(=O)n(C3CC3)ccc2c1[C@](O)(c1ccc(C(F)(F)F)nc1)C(F)(F)F (single isomer, unassigned) [5-11]	–	> 30000	1.9	25	–	–
Cn1nc2c(=O)n(C3CC3)cnc2c1[C@](O)(c1ccc(C(F)(F)F)c(C#N)c1)C(F)(F)F (single isomer, unassigned) [5-56]	18	–	–	–	0.14	–
Cn1nc2c(=O)n(C3CC3)ccc2c1[C@](O)(c1ccc(C(F)(F)F)c(Cl)c1)C(F)(F)F (stereo in doubt) [5-7]	–	4700	0.17	–	–	9.1
Cn1nc2c(=O)n(C3CC3)ccc2c1[C@](C)(O)c1cnc(C(F)(F)F)c(Cl)c1 [1-10]	25	–	1.4	–	–	9.7
